Reference: patent US20050191308A1 (priority 1999, published 2005)

Tested on: M. tuberculosis (Erdman)
Settings: in vivo

CCCCCCCCCCCCCCCCCC[N+](C)(C)CCCCCCCCCCCCCCCCCC.[Br-] [DDA]
Log10 resistance, Lung, Experiment I: <0.05 log10
Log10 resistance, Spleen, Experiment I: <0.05 log10
